These results are taken from patent publication EP4818187A1, “COMPOUND AND USE THEREOF” (Ganzhou Hemay Pharmaceutical, Co., Ltd, priority 2023, dated 2025).

The structures appear in SMILES notation.

Holding throughout (format): cell-based
The test system of assay [1] is Fadu (human pharyngeal squamous cell carcinoma). The experiment in a line: In vitro inhibitory effect against human tumor cells (MTT). The conditions noted are these: 72 h, 3 days.
The subject of assay [2] is HCT116 (human colorectal cancer). The description is as above. As to conditions: HCT-116, 72 h, 3 days.
The subject of assay [3] is NCI-H1975 (human non-small cell lung cancer). Described as above. The conditions noted are these: NCI-H1975, 72 h, 3 days.
Assay [4] concerns NCI-N87 (human gastric cancer cell). The description is as above. The conditions noted are these: NCI-N87, 72 h, 3 days.
The subject of assay [5] is SK-OV-3 (human ovarian cancer). The description is as above. The conditions noted are these: SK-OV-3, 72 h, SK-OV-3, MTT, 3 days.
In assay [6] the test system is 22RV1 (human prostate cancer). Kind of assay: In vitro inhibitory effect against human tumor cells (SRB). The conditions noted are these: 22Rv1, 72 h, 22RV1, SRB, 3 days.
For assay [7], the system named is A375 (human malignant melanoma). The assay is described as above. As to conditions: A-375, 72 h, 3 days.
Assay [8] relates to HCC827 (human non-small cell lung cancer). The assay is described as above. The conditions noted are these: HCC827, 72 h, 3 days.
For assay [9], the system named is HepG2 (human liver cancer cell). The assay is described as above. As to conditions: HepG2, 72 h, 3 days.
The subject of assay [10] is MDA-MB-468 (human triple-negative breast cancer). The description is as above. The conditions noted are these: MDA-MB-468, 72 h, MDA-MB-468, SRB, 3 days.
The test system of assay [11] is SW620 (human colorectal cancer). The assay is described as above. The conditions noted are these: SW-620, 72 h, 3 days.
[12] abbreviates: With addition of βGU (1 µg/well).

As a reminder, the IC50 is the point on the concentration scale where inhibition reaches its midpoint. A low value points to greater potency. Consider `CC[C@H](C)[C@@H]([C@@H](CC(=O)N1CCC[C@H]1[C@H](OC)[C@@H](C)C(=O)N[C@H](C)[C@@H](OCc1ccc(O[C@@H]2O[C@H](C(=O)[O-])[C@@H](O)[C@H](O)[C@H]2O)cc1OCc1cn(CCCCCC(=O)Nc2ccc(-c3ccc(/N=N/c4ccc5c(S(=O)(=O)[O-])cc(S(=O)(=O)[O-])c(N)c5c4O)c(C)c3)cc2C)nn1)c1ccccc1)OC)N(C)C(=O)[C@@H](NC(=O)[C@H](C(C)C)N(C)C)C(C)C.[Na+].[Na+].[Na+]` [Example compound 2], for which the IC50 in assay [1] (setting [12]) came to 2.7 nM; in assay [1] (βGU-free) it was 38 nM; in [2] (setting [12]), 6.1 nM; in [2] (βGU-free), 143 nM; in assay [3] (setting [12]), 4.3 nM; in assay [3] (βGU-free), 114 nM. Also, the IC50 in assay [4] (setting [12]) was 5.6 nM; in assay [4] (βGU-free), 81 nM; in assay [5] (setting [12]) it was 6.1 nM; in assay [5] (βGU-free), 211 nM; in [6] (setting [12]), 7.5 nM; in assay [6] (βGU-free) it was 176 nM. Further, the IC50 worked out at 6.7 nM in assay [7] (setting [12]); 212 nM in assay [7] (βGU-free); 3.8 nM in assay [8] (setting [12]); 110 nM in [8] (βGU-free); 4.3 nM in assay [9] (setting [12]); 120 nM in assay [9] (βGU-free). Further, the IC50 in assay [10] (setting [12]) came to 2.7 nM; in assay [10] (βGU-free) it was 24 nM; in [11] (setting [12]), 6.7 nM; in assay [11] (βGU-free), 81 nM.
